Source: patent publication US8969516B2, “Method of hydrolysis of peptide bond” (priority 2006, dated 2015)

Test: MALDI-TOF screening of Ni^2+ dependent hydrolysis in a combinatorial peptide library
Type: physicochemical
Conditions: Ni^2+ 2 mM, pH 8.2, 10 mM Tris, score=24/tm
Summary of the method: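 MALDI-TOF read-out: appearance of Ser/Thr-X-His-Z-Lys-Phe-Leu-NH2 product signals, plus loss of substrate signals, checked by eye at 2, 4, 6, 8 h. Conditions: 1 mM peptide mixture, 2 mM Ni2+, 10 mM Tris pH 8.2, 37 or 45 °C.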

[1] = CH3CO-Gly-Ala-Thr-X-His-Z-Lys-Phe-Leu-NH2 library, 37° C.
[2] = CH3CO-Gly-Ala-Thr-X-His-Z-Lys-Phe-Leu-NH2 library, 45° C.
[3] = CH3CO-Gly-Ala-Ser-X-His-Z-Lys-Phe-Leu-NH2 library, 37° C.
[4] = CH3CO-Gly-Ala-Ser-X-His-Z-Lys-Phe-Leu-NH2 library, 45° C.

| Substance | hydrolysis score from MALDI-TOF screening [1] | hydrolysis score from MALDI-TOF screening [2] | hydrolysis score from MALDI-TOF screening [3] | hydrolysis score from MALDI-TOF screening [4] |
| --- | --- | --- | --- | --- |
| Ac-GATGHHKFL-NH2 [TGHH] | 0 (a score of 0 if no trace of the product of hydrolysis was seen after 8 hours of incubation) | 0 (a score of 0 if no trace of the product of hydrolysis was seen after 8 hours of incubation) | – | – |
| Ac-GASRHFKFL-NH2 [SRHF] | – | – | 4 (a score of 4 for detection at 6 hours) | 4 (a score of 4 for detection at 6 hours) |
| Ac-GASHHGKFL-NH2 [SHHG] | – | – | 3 (a score of 3 for detection at 8 hours) | 0 (a score of 0 if no trace of the product of hydrolysis was seen after 8 hours of incubation) |
| Ac-GASIHAKFL-NH2 [SIHA] | – | – | 0 (a score of 0 if no trace of the product of hydrolysis was seen after 8 hours of incubation) | 0 (a score of 0 if no trace of the product of hydrolysis was seen after 8 hours of incubation) |
| Ac-GATMHFKFL-NH2 [TMHF] | 0 (a score of 0 if no trace of the product of hydrolysis was seen after 8 hours of incubation) | 0 (a score of 0 if no trace of the product of hydrolysis was seen after 8 hours of incubation) | – | – |
| Ac-GASMHPKFL-NH2 [SMHP] | – | – | 0 (a score of 0 if no trace of the product of hydrolysis was seen after 8 hours of incubation) | 0 (a score of 0 if no trace of the product of hydrolysis was seen after 8 hours of incubation) |
| Ac-GATTHVKFL-NH2 [TTHV] | 0 (a score of 0 if no trace of the product of hydrolysis was seen after 8 hours of incubation) | 0 (a score of 0 if no trace of the product of hydrolysis was seen after 8 hours of incubation) | – | – |
| Ac-GASVHGKFL-NH2 [SVHG] | – | – | 0 (a score of 0 if no trace of the product of hydrolysis was seen after 8 hours of incubation) | 0 (a score of 0 if no trace of the product of hydrolysis was seen after 8 hours of incubation) |
| Ac-GASAHGKFL-NH2 [SAHG] | – | – | 0 (a score of 0 if no trace of the product of hydrolysis was seen after 8 hours of incubation) | 0 (a score of 0 if no trace of the product of hydrolysis was seen after 8 hours of incubation) |
| Ac-GATGHAKFL-NH2 [TGHA] | 0 (a score of 0 if no trace of the product of hydrolysis was seen after 8 hours of incubation) | 0 (a score of 0 if no trace of the product of hydrolysis was seen after 8 hours of incubation) | – | – |
| Ac-GASWHSKFL-NH2 [SWHS] | – | – | 0 (a score of 0 if no trace of the product of hydrolysis was seen after 8 hours of incubation) | 0 (a score of 0 if no trace of the product of hydrolysis was seen after 8 hours of incubation) |
| Ac-GATWHEKFL-NH2 [TWHE] | 0 (a score of 0 if no trace of the product of hydrolysis was seen after 8 hours of incubation) | 0 (a score of 0 if no trace of the product of hydrolysis was seen after 8 hours of incubation) | – | – |
| Ac-GASLHNKFL-NH2 [SLHN] | – | – | 0 (a score of 0 if no trace of the product of hydrolysis was seen after 8 hours of incubation) | 0 (a score of 0 if no trace of the product of hydrolysis was seen after 8 hours of incubation) |
| Ac-GASSHIKFL-NH2 [SSHI] | – | – | 6 (a score of 6 for detection at 4 hours) | 6 (a score of 6 for detection at 4 hours) |
| Ac-GATVHSKFL-NH2 [TVHS] | 0 (a score of 0 if no trace of the product of hydrolysis was seen after 8 hours of incubation) | 0 (a score of 0 if no trace of the product of hydrolysis was seen after 8 hours of incubation) | – | – |
| Ac-GATKHQKFL-NH2 [TKHQ] | 0 (a score of 0 if no trace of the product of hydrolysis was seen after 8 hours of incubation) | 0 (a score of 0 if no trace of the product of hydrolysis was seen after 8 hours of incubation) | – | – |
| Ac-GASKHTKFL-NH2 [SKHT] | – | – | 0 (a score of 0 if no trace of the product of hydrolysis was seen after 8 hours of incubation) | 0 (a score of 0 if no trace of the product of hydrolysis was seen after 8 hours of incubation) |
| Ac-GATYHTKFL-NH2 [TYHT] | 0 (a score of 0 if no trace of the product of hydrolysis was seen after 8 hours of incubation) | 0 (a score of 0 if no trace of the product of hydrolysis was seen after 8 hours of incubation) | – | – |
| Ac-GATQHRKFL-NH2 [TQHR] | 3 (a score of 3 for detection at 8 hours) | 4 (a score of 4 for detection at 6 hours) | – | – |
| Ac-GATNHDKFL-NH2 [TNHD] | 0 (a score of 0 if no trace of the product of hydrolysis was seen after 8 hours of incubation) | 0 (a score of 0 if no trace of the product of hydrolysis was seen after 8 hours of incubation) | – | – |
| Ac-GASLHDKFL-NH2 [SLHD] | – | – | 0 (a score of 0 if no trace of the product of hydrolysis was seen after 8 hours of incubation) | 0 (a score of 0 if no trace of the product of hydrolysis was seen after 8 hours of incubation) |
| Ac-GASLHMKFL-NH2 [SLHM] | – | – | 0 (a score of 0 if no trace of the product of hydrolysis was seen after 8 hours of incubation) | 0 (a score of 0 if no trace of the product of hydrolysis was seen after 8 hours of incubation) |
| Ac-GASSHKKFL-NH2 [SSHK] | – | – | 4 (a score of 4 for detection at 6 hours) | 6 (a score of 6 for detection at 4 hours) |
| Ac-GATVHPKFL-NH2 [TVHP] | 0 (a score of 0 if no trace of the product of hydrolysis was seen after 8 hours of incubation) | 0 (a score of 0 if no trace of the product of hydrolysis was seen after 8 hours of incubation) | – | – |
| Ac-GATHHDKFL-NH2 [THHD] | 0 (a score of 0 if no trace of the product of hydrolysis was seen after 8 hours of incubation) | 0 (a score of 0 if no trace of the product of hydrolysis was seen after 8 hours of incubation) | – | – |
| Ac-GATFHEKFL-NH2 [TFHE] | 0 (a score of 0 if no trace of the product of hydrolysis was seen after 8 hours of incubation) | 0 (a score of 0 if no trace of the product of hydrolysis was seen after 8 hours of incubation) | – | – |
| Ac-GATSHKKFL-NH2 [TSHK] | 0 (a score of 0 if no trace of the product of hydrolysis was seen after 8 hours of incubation) | 0 (a score of 0 if no trace of the product of hydrolysis was seen after 8 hours of incubation) | – | – |
| Ac-GASQHRKFL-NH2 [SQHR] | – | – | 6 (a score of 6 for detection at 4 hours) | 6 (a score of 6 for detection at 4 hours) |
| Ac-GASFHKKFL-NH2 [SFHK] | – | – | 4 (a score of 4 for detection at 6 hours) | 6 (a score of 6 for detection at 4 hours) |
